Data from patent US20170334899A1, “AMINO-SUBSTITUTED ISOTHIAZOLES” (Bayer Pharma Aktiengesellschaft, priority 2014, published 2017).
Where a name gives a salt, the structure may show the parent alone. Read-outs that look alike come from different tables or passages of the source.

How the values were obtained:
CDK2/CycE = target: T1, CDK2/CycE (Homo sapiens, UniProt P24941); assay: CDK2/CycE kinase assay (TR-FRET); type: biochemical; conditions: avg, read-out: CDK2 avg (IC50 [mol/l])
T1 construct: GST; purchased ProQinase GmbH (Freiburg, Germany); host or cells: insect cells (Sf9)
Outline: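 GST-tagged human CDK2 and CycE from Sf9 cells, preincubated 15 min with compound, then 25 min at 22° C. with 10 μM ATP and 0.75 μM biotinylated Rb-derived peptide (final). Phospho-substrate read by TR-FRET (anti-pRB pSer807/pSer811, Eu anti-mouse IgG, streptavidin-XL665), 665/620 nm ratio, normalised to no-inhibitor and no-enzyme controls.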

[1] = test system: human cervical tumor cell line HeLa (ATCC CCL-2); assay: SAC-Formation - Paclitaxel-Induced Assay; type: cell-based; conditions: 24 h, HeLa cells, paclitaxel 0.05 μM, test range 0.005 μM-20 μM, read-out: IC50 [mol/l] SAC-Formation - Paclitaxel-Induced Assay
Outline: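 HeLa cells incubated overnight at 37° C, then given paclitaxel (0.05 μM final) plus test compound (0.005–20 μM, 0.5% DMSO) together for 24 h at 37° C. Fixed cells stained for phospho-histone H3 Ser10 (mitotic cells) and Hoechst 33342 (cell count); imaging-derived mitotic index fitted by four-parameter Hill equation.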

Row | SMILES | IC50 (CDK2/CycE) [µM] | IC50 ([1]; Homo sapiens, HeLa) [µM] | IC50 [1] [µM]
1 | Cc1nsc(Nc2cnc3ccccc3n2)c1C(=O)Nc1ccc(C(=O)N2CCN(CC(F)F)CC2)cc1 [Example 157, N-(4-{[4-(2,2-difluoroethyl)piperazin-1-yl]carbonyl}phenyl)-3-methyl-5-(quinoxalin-2-ylamino)-1,2-thiazole-4-carboxamide] | > 20 | 0.9 | –
2 | Cc1nsc(Nc2cnc3ccccc3n2)c1C(=O)Nc1ccc(C(=O)NC2CN(C(=O)OC(C)(C)C)CC(F)(F)C2)cc1 (stereo not drawn) [Example 158, tert-butyl 3,3-difluoro-5-{[4-({[3-methyl-5-(quinoxalin-2-ylamino)-1,2-thiazol-4-yl]carbonyl}amino)benzoyl]amino} piperidine-1-carboxylate] | > 20 | 2.8 | –
3 | Cc1nsc(Nc2cnc3ccccc3n2)c1C(=O)Nc1ccc(C(=O)N2CCCN(CC(F)(F)F)CC2)cc1 [Example 159] | > 20 | 10 | –
4 | Cc1nsc(Nc2cnc(C(F)(F)F)cn2)c1C(=O)Nc1ccc(OC2CCN(C(C)C)CC2)nc1 [Example 160, N-{6-[(1-isopropylpiperidin-4-yl)oxy]pyridin-3-yl}-3-methyl-5-{[5-(trifluoromethyl)pyrazin-2-yl]amino}-1,2-thiazole-4-carboxamide] | > 20 | 3.6 | –
5 | Cc1nsc(Nc2cnc(C(F)(F)F)cn2)c1C(=O)Nc1ccc(OC2CCN(CCF)CC2)c(F)c1 [Example 162, N-(3-fluoro-4-{[1-(2-fluoroethyl)piperidin-4-yl]oxy}phenyl)-3-methyl-5-{[5-(trifluoromethyl)pyrazin-2-yl]amino}-1,2-thiazole-4-carboxamide] | > 20 | 0.12 | –
6 | Cc1nsc(Nc2cnc(C(F)(F)F)cn2)c1C(=O)Nc1ccc(OC2CCN(CC(F)(F)F)CC2)c(F)c1 [Example 163, N-(3-fluoro-4-{[1-(2,2,2-trifluoroethyl)piperidin-4-yl]oxy}phenyl)-3-methyl-5-{[5-(trifluoromethyl)pyrazin-2-yl]amino}-1,2-thiazole-4-carboxamide] | > 20 | 0.039 | –
7 | Cc1nsc(Nc2cnc(C(F)(F)F)cn2)c1C(=O)Nc1ccc(OC2CCN(CC(F)F)CC2)c(F)c1 [Example 164, N-(4-{[1-(2,2-difluoroethyl)piperidin-4-yl]oxy}-3-fluorophenyl)-3-methyl-5-{[5-(trifluoromethyl)pyrazin-2-yl]amino}-1,2-thiazole-4-carboxamide] | > 20 | 0.14 | –
8 | Cc1nsc(Nc2cnc(C(F)(F)F)cn2)c1C(=O)Nc1ccc(C(=O)NC2CCN(CC(F)(F)F)CC2)cc1 [Example 165, 3-methyl-N-(4-{[1-(2,2,2-trifluoroethyl)piperidin-4-yl]carbamoyl}phenyl)-5-{[5-(trifluoromethyl)pyrazin-2-yl]amino}-1,2-thiazole-4-carboxamide] | > 20 | 0.59 | –

Second part, the compound after the results:

Row | IC50 (CDK2/CycE) [µM] | IC50 ([1]; Homo sapiens, HeLa) [µM] | IC50 [1] [µM] | SMILES
9 | > 20 | 0.17 | – | Cc1nsc(Nc2cncc(C(F)(F)F)n2)c1C(=O)Nc1ccc(OCC2CCCN(C(=O)OC(C)(C)C)C2)nc1 (stereo not drawn) [Example 166, tert-butyl 3-{[(5-{[(3-methyl-5-{[6-(trifluoromethyl)pyrazin-2-yl]amino}-1,2-thiazol-4-yl)carbonyl]amino}pyridin-2-yl)oxy]methyl}piperidine-1-carboxylate]
10 | > 20 | 0.34 | – | Cc1nsc(Nc2cncc(C(F)(F)F)n2)c1C(=O)Nc1ccc(C(=O)NC2CCN(CC(F)(F)F)CC2)cc1 [Example 167, 3-methyl-N-(4-{[1-(2,2,2-trifluoroethyl)piperidin-4-yl]carbamoyl}phenyl)-5-{[6-(trifluoromethyl)pyrazin-2-yl]amino}-1,2-thiazole-4-carboxamide]
11 | > 20 | 0.075 | – | Cc1nsc(Nc2cncc(C(F)(F)F)n2)c1C(=O)Nc1ccc(F)c(OC2CCN(C(=O)OC(C)(C)C)CC2)c1 [Example 168, tert-butyl 4-(2-fluoro-5-{[(3-methyl-5-{[6-(trifluoromethyl)pyrazin-2-yl]amino}-1,2-thiazol-4-yl)carbonyl]amino}phenoxy)piperidine-1-carboxylate]
12 | > 20 | 14 | – | Cc1nsc(Nc2cnc3ccccc3n2)c1C(=O)Nc1ccc(N2CCOCC2)nc1 [Example 169, 3-methyl-N-[6-(morpholin-4-yl)pyridin-3-yl]-5-(quinoxalin-2-ylamino)-1,2-thiazole-4-carboxamide]
13 | > 20 | 1.1 | – | Cc1nsc(Nc2ccc(C#N)cn2)c1C(=O)Nc1ccc(N[C@@H](C)C(=O)OC(C)(C)C)nc1 [Example 170, tert-butyl N-{5-[({5-[(5-cyanopyridin-2-yl)amino]-3-methyl-1,2-thiazol-4-yl}carbonyl)amino]pyridin-2-yl}alaninate]
14 | > 20 | 4 | – | Cc1nsc(Nc2ccc(C#N)cn2)c1C(=O)Nc1ccc(NC2CCCN(C(=O)OC(C)(C)C)C2)nc1 (stereo not drawn) [Example 171, tert-butyt 3-({5-[({5-[(5-cyanopyridin-2-yl)amino]-3-methyl-1,2-thiazol-4-yl}carbonyl)amino]pyridin-2-yl}amino)piperidine-1-carboxylate]
15 | > 20 | 2.3 | – | Cc1nsc(Nc2cnc3ccccc3n2)c1C(=O)Nc1ccc(NC2CC2)nc1 [Example 172, N-[6-(cyclopropylamino)pyridin-3-yl]-3-methyl-5-(quinoxalin-2-ylamino)-1,2-thiazole-4-carboxamide]
16 | > 20 | 6.7 | – | COc1ccc(NC(=O)c2c(C)nsc2Nc2ccc(C#N)cn2)c(N2CCOCC2)n1 [Example 173, 5-[(5-cyanopyridin-2-yl)amino]-N-[6-methoxy-2-(morpholin-4-yl)pyridin-3-yl]-3-methyl-1,2-thiazole-4-carboxamide]
17 | ≥ 20 | – | 0.098 | Cc1nsc(Nc2cnc(C(F)(F)F)cn2)c1C(=O)Nc1ccc(F)c(OCC2CCCN(CC(F)F)C2)c1 (stereo not drawn) [Example 335, N-(3-{[1-(2,2-difluoroethyl)piperidin-3-yl]methoxy}-4-fluorophenyl)-3-methyl-5-{[5-(trifluoromethyl)pyrazin-2-yl]amino}-1,2-thiazole-4-carboxamide]
18 | ≥ 20 | – | 0.032 | Cc1nsc(Nc2cnc(C(F)(F)F)cn2)c1C(=O)Nc1ccc(OC2CCN(CCC(F)(F)F)CC2)nc1 [Example 426, 3-Methyl-5-{[5-(trifluoromethyl)pyrazin-2-yl]amino}-N-(6-{[1-(3,3,3-trifluoro-propyl)piperidin-4-yl]oxy}pyridin-3-yl)-1,2-thiazole-4-carboxamide, Salt with Hydrochloric Acid]
